Converted amounts (≈) assume the structure as drawn.
What was measured:
[1] = test system: methicillin-resistant S. haemolyticus clinical isolate; experiment: MIC, clinical isolate of methicillin-resistant S. haemolyticus; assay type: cell-based; details: Staphylococcus haemolyticus, read-out: MIC S. haemolyticus
[2] = test system: methicillin-resistant S. epidermidis clinical isolate; experiment: MIC, clinical isolate of methicillin-resistant S. epidermidis; assay type: cell-based; details: Staphylococcus epidermidis, read-out: MIC S. epidermidis
[3] = test system: Vancomycin intermediate resistant S. aureus; experiment: MIC, micro-dilution broth, VISA; assay type: cell-based; details: VISA
Experimental: (§1) All test compounds were assayed in a micro-dilution broth format. Stock solutions were made by serially diluting the compounds using autoclaved millipore water or broth media. The antibacterial activity of the compounds was determined against methicillin-sensitive S. aureus (MSSA), methicillin-resistant S. aureus (MRSA), vancomycin-intermediate-resistant S. aureus (VISA), vancomycin-sensitive E. faecium (VSE) and vancomycin-resistant E. faecium (VRE). Bacteria, to be tested, were grown for about 10 h in the suitable media, MSSA, MRSA and VISA were grown in yeast-dextrose broth (about 1 g of beef extract, about 2 g of yeast extract, about 5 g of peptone and about 5 g of NaCl in about 1000 mL of sterile distilled water (pH-7)). For solid media, about 5% agar was used along with above mentioned composition. VSE and VRE were cultured in brain heart infusion broth (Himedia). The bacterial samples were freeze dried and stored at −80° C. About 5 μL of these stocks were added to about 3 mL of the nutrient broth and the culture was grown for about 6 h at about 37° C. prior to the experiments. This 6 h grown culture gives about 10^9 cfu/mL and this was determined by spread plating method. The 6 h grown culture was diluted to give effective cell concentration of about 10^5 cfu/mL which was then used for determining MIC. Compounds were serially diluted, in sterile water (2 fold dilution is employed) in a way that the working concentration was about 10 μM for MSSA, MRSA, and VSE while for VRE and VISA it was about 100 μM. About 50 μL of these serial dilutions were added to the wells of 96 well plate followed by the addition of about 150 μL of bacterial solution. The plates were then incubated at about 37° C., 150 rpm in the incubator and O.D at 600 nm was recorded at an interval of about 10 h and 24 h using TECAN (Infinite series, M200 pro) Plate Reader. Each concentration had triplicate values and the whole experiment was done at least twice and the MIC value was determined by taking the average of triplicate. O. D. values for each concentration and plotting it against concentration. The data was then subjected to sigmoidal fitting. From the curve the MIC value was determined, as the point in the curve where the O. D. was similar to that of control having no bacteria.

[4] = test system: VISA; experiment: Ex-vivo whole blood assay; assay type: cell-based, S. aureus; details: 3 h incubation in 90% human whole blood
Experimental: Ex-vivo whole blood assay was performed to compare the abilities of these compounds to retain activity in complex media. To 30 μL of VISA in saline (0.9% NaCl; 10^6 CFU/mL) 10 μL of test compounds (vancomycin and compound 7) and 270 μL of fresh human whole blood were added and incubated, at 37° C. for about 3 h. After the incubation period, antibacterial activity was determined by finding the bacterial titer in the infected blood.

[5] = test system: methicillin-resistant S. aureus clinical isolate; experiment: MIC, clinical isolate of methicillin-resistant S. aureus; assay type: cell-based; details: Staphylococcus aureus, read-out: MIC S. aureus
Experimental: as §1

[6] = test system: VISA; experiment: In-vivo time dependent whole blood assay; design: species or system S. aureus; details: 12 mg/kg single i.v., CD-1 mice
Experimental: The derivative 7 and vancomycin were administered in a single intravenous injection (0.2 mL saline) to normal pathogen-free, female CD-1 mice. Doses of 12 mg kg^−1 were administered to three mice per data point. At the specified time-points (0, 3, 6, 12, 24 and 48 h) mice were euthanized (using ether), blood samples were collected from the ocular puncture. 60 μL of VISA in saline (0.9% NaCl; 10^6 CFU/mL) was added to 540 μL of whole blood which was drawn from the mice and incubated at 37° C. for 3 h. After the incubation period, antibacterial activity was determined by finding the bacterial titer in the infected blood.

[7] = test system: Vancomycin-resistant E. faecalis (VanA, ATCC 51575); experiment: MIC, micro-dilution broth, VRE (VanB); assay type: cell-based; details: Enterococcus faecalis, read-out: MIC VRE (VanB)
[8] = test system: methicillin-resistant vancomycin-intermediate S. aureus (MR-VISA); experiment: Time-kill assay; assay type: cell-based; details: 2 μM and 4 μM
Experimental: The bactericidal activity was assessed by the kinetics or the rate at which it affects the killing action of the compound. Briefly methicillin-resistant vancomycin-intermediate S. aureus (MR-VISA) grown in Yeast-Dextrose broth. A starting inoculum of 1.6×10^8 CFU/ml was used as initial bacterial colony count. Vancomycin and compound 7 having final concentrations of 2 μM and 4 μM were inoculated with MR-VISA suspensions having starting inocula of 1.6×10^8 CFU/ml. Bacterial suspension containing specified concentrations of the compound along with negative control (which contains only 0.9% Saline) was incubated at 37° C. with shaking. Aliquots (20 μl) were removed from the cultures at different time intervals and were serially diluted 10-fold in 0.9% saline and plated onto sterile Yeast-Dextrose agar medium. The number of viable cells was determined by plating the 10-fold serial dilution of each sample onto Yeast-dextrose agar medium. Plates were then incubated for 24 h at 37° C., CFU was counted and the total bacterial log 10 CFU/ml was determined.

[9] = test system: MR-VISA; experiment: In-vivo antibacterial activity, neutropenic mouse thigh infection; design: species or system Staphylococcus aureus; details: 12 mg/kg i.v., neutropenic mice, 24 h
Experimental: About six-week-old, female CD-1 mice (weight, ˜19-24 g) were used for the experiments. The mice were rendered neutropenic (˜100 […]) by injecting two doses of cyclophosphamide intraperitoneally 4 days (150 mg/kg) and 1 day (100 mg/kg) before the infection experiment. 50 μl of ˜10^7 CFU/ml concentration of the bacterial inoculum (MR-VISA) was injected into the thigh. One hour after inoculation, animals were treated intravenously with saline, vancomycin, linezolid and compound 7 at 12 mg/kg and 24 mg/kg of body weight (24 h total dosage). At 24 h post first treatment, cohorts of animals were euthanized (using ether) and the thighs were collected aseptically. The thigh was weighed (0.7 g-0.9 g) and placed into 10 ml of sterile saline and homogenized. The dilutions of the homogenate were plated onto agar plates, which were incubated overnight at 37° C. The bacterial titer was expressed as log10 CFU/g of thigh weight.

CCCCCCCCCCN[C@]1(C)C[C@H](OC2C(O)[C@@H](O)C(CO)O[C@@H]2Oc2c3cc4cc2Oc2ccc(cc2Cl)[C@@H](O)[C@@H](NC(=O)[C@@H](CC(C)C)NC)C(=O)N[C@@H](CC(N)=O)C(=O)N[C@H]4C(=O)N[C@H]2C(=O)N[C@H](C(=O)N[C@H](C(=O)NCCCNC(=O)[C@H](O)[C@@H](O)[C@H](OC4OC(CO)C(O)C(O)[C@H]4O)[C@H](O)CO)c4cc(O)cc(O)c4-c4cc2ccc4O)[C@H](O)c2ccc(c(Cl)c2)O3)OC(C)[C@@H]1O (some centres unmarked) [Compound 7]
MIC [1]: 0.41 µM (≈ 0.814 µg/mL) | MIC [2]: 0.3 µM (≈ 0.596 µg/mL) | MIC ([3]; Staphylococcus aureus, read-out: MIC VISA): 0.2 µM (≈ 0.397 µg/mL) | fold more active than vancomycin [3]: about 65 fold | bactericidal activity in whole blood [4]: rapid bactericidal activity | MIC [5]: 0.3 µM (≈ 0.596 µg/mL) | CFU/mL reduction ([6]; blood drawn up to 24 h, VISA): 3 log10 CFU/mL | time after dosing up to which blood showed antibacterial activity ([6]; blood incubated with VISA 3 h): 24 h | MIC [7]: 1 µM (≈ 1.99 µg/mL) | killing kinetics [8]: rapid | reduction in bacterial count from the initial titer [9]: ~3.0 log10 CFU/g

From patent US20160303184A1, “VANCOMYCIN-SUGAR CONJUGATES AND USES THEREOF” (JAWAHARLAL NEHRU CENTRE FOR ADVANCED SCIENTIFIC RESEARCH …, priority 2013, published 2016)
